Patent US10035778B2, “Meta-azacyclic amino benzoic acid derivatives as pan integrin antagonists” (Saint Louis University, priority 2015, dated 2018)

How the values were obtained:
[1] = Oral (PO) cassette pharmacokinetic study in male Sprague-Dawley rats; format: in vivo; conditions: plasma; male Sprague-Dawley rat, 2 mg/kg oral gavage cassette in 0.5% methylcellulose; read-out: AUC (0-inf) after a 2 mg/kg PO dose in rat
Method: (§1) A minimally sufficient volume of dimethylsulfoxide (DMSO) was added to each test compound to achieve solubilization. For intravenous (IV) delivery, compounds were then formulated as solutions in glycerol formal: saline (either 20:80 or 40:60 v/v) (Sigma Chemicals, St. Louis). For oral (PO) administration, compounds were formulated with 0.5% methylcellulose. Five to six compound solutions were combined into a singled mixed solution for IV and PO cassette administration with final DMSO concentrations <0.6% or <1.2%, for the IV and PO cassettes, respectively. Analytes were detected in test samples using an LC/MS/MS (liquid chromatography/mass spectrometry) system consisting of an LC-20AD pump (Shimadzu, Kyoto, Japan), an HTC PAL autosampler (Leap technologies, Carrboro, N.C.), and a Sciex API-4000 mass spectrometer in ESI mode (AB Sciex, Foster City, Calif.). An Amour C18 reverse phase column (Analytical Sales and Services, Pompton Plains, N.J.) was used for chromatographic separation.
(§2) Pharmacokinetic (PK) studies conducted at Saint Louis University used male Sprague-Dawley rats with an initial body weight of 200 to 220 g. IV PK studies were performed with the following compounds: Examples 1-3 and 5-17 and comparison compounds C12-C18, C29, and C30. Animals were allowed free access to food and water. Rats were individually housed and connected to jugular vein catheters. Each cassette formulation was administered intravenously to two rats (1 mL/kg body weight). Each cassette formulation contained 5-6 compounds at 1 mg/kg in either 20:80 or 40/60 glycerol formal/saline (v/v). Blood was collected manually via the catheter into lithium-heparin tubes at 0.017, 0.083, 0.5, 1, 2, 4, 6 and 24 hours post-dose. Animals were euthanized with CO2 at the end of the experiment.
Oral PK studies were conducted with the following compounds: Examples 1-3 and 5-17 and comparison compounds C12, C14-16 and C29-30. The PO cassette formulations were administered via oral gavage to two rats (10 mL/kg body weight) containing 5-6 compounds per cassette. The oral dose was administered at 2 mg/kg/compound in 0.5% methylcellulose. Blood collection time points were 0.25, 0.5, 1, 2, 4, 6 and 24 hours post-dose into lithium-heparin tubes. Animals were euthanized with CO2 at the end of the experiment.
(§3) Internal standard was added to all samples at 200 ng/mL (final), as well as 150 μL of acetonitrile. Plasma samples (50 μL total volume) were diluted with control nave rat plasma as appropriate to bring the sample measurement into the linear dynamic range of the standard curve. The samples were capped and mixed on a multi-plate vortexer for 5 minutes and centrifuged for 5 minutes at 3200 rmp. The supernant was transferred to 96-well sample plate and capped for LC/MS/MS analysis. Compounds were optimized and monitored for their respective MRM transitions. The mobile phases consisted of 0.1% formic acid (aqueous) and 100% acetonitrile (organic) with an Amour C18 reverse phase column (2.1×30 mm, 5 micron) at a flow rate of 0.35 mL/min. The starting phase was 10% acetonitrile for the 0.9 minutes then increased to 90% acetonitrile over 0.4 minutes, and was maintained for an additional 0.2 minutes before returning to 10% acetonitrile over 0.4 minutes. The 10% acetonitrile was held for an additional 1.6 minutes. Peak areas were integrated using Analyst 1.5.1 (AB Sciex, Foster City, Calif.).

[2] = molecular target: Recombinant human integrin α8β1 (Homo sapiens (Human), UniProt P05556+P53708); test: Solid Phase Receptor Assay (SPRA) for α8β1 function; format: binding; conditions: mouse nephronectin-coated plate
Method: 7. Solid Phase Receptor Assay (SPRA) for α8β1 Function
Recombinant mouse nephronectin protein (R&D Systems, Inc, 4298-NP) diluted to 1 μg/mL in TBS+ buffer (25 mM Tris pH 7.4, 137 mM NaCl, 2.7 mM KCl, 1 mM CaCl2, 1 mM MgCl2, 1 mM MnCl2) was added to wells (50 μl/well) of a 96-well half-well transparent microtiter plate (Greiner 675061), and incubated overnight at 4° C. Wells were washed 3 times with 150 μL TBS+ and 150 μL of blocking buffer (TBS+ with 1% bovine serum albumin, Sigma A7906) were added. The plate was incubated for 1 hr at 37° C. and then washed 3× with TBS+. Recombinant human integrin α8β1 (R&D Systems, pre-launch) was diluted to 0.25 μg/mL in TBS+/0.1% bovine serum albumin. Compounds were diluted 1:100 into the integrin solution and 50 μL added to empty wells of the washed nephronectin-coated plate according to a standard template with each sample repeated in triplicate. After incubation for two hours at room temperature, the plate was washed 3× with 150 μL of TBS+. To each well, 50 μL of biotinylated anti-β antibody (R&D Systems, BAF1778) at 0.5 μg/mL in TBS+/0.1% BSA were added and the plate was covered and incubated for 1 hr at room temperature. After washing the plate 3× with 150 μL of TBS+ buffer, 50 μL of streptavidin-conjugated horseradish peroxidase (R&D Systems, DY998) diluted in TBS+ blocking buffer were added to the wells and the plate incubated for 20 min at room temperature. The plate was washed 3× with TBS+ followed by 50 μL of TMB substrate (Sigma T4444) added to each well and the plate incubated for 20 min at room temperature. Plates were read by colorimetric detection at 650 nm wavelength using a Tecan Safire II plate reader. Concentration-response curves were constructed by non-linear regression (best fit) analysis, and IC50 values were calculated for each compound.

[3] = IV cassette pharmacokinetic study in male Sprague-Dawley rats (Saint Louis University); format: in vivo; conditions: plasma; male Sprague-Dawley rat, 1 mg/kg IV cassette, sampling to 24 h; read-out: plasma t½ after 1 mg/kg IV bolus dose in rat (converted)
Method: as §1, §2, §3

Recombinant human integrin α8β1, sequence (P53708 39-1012): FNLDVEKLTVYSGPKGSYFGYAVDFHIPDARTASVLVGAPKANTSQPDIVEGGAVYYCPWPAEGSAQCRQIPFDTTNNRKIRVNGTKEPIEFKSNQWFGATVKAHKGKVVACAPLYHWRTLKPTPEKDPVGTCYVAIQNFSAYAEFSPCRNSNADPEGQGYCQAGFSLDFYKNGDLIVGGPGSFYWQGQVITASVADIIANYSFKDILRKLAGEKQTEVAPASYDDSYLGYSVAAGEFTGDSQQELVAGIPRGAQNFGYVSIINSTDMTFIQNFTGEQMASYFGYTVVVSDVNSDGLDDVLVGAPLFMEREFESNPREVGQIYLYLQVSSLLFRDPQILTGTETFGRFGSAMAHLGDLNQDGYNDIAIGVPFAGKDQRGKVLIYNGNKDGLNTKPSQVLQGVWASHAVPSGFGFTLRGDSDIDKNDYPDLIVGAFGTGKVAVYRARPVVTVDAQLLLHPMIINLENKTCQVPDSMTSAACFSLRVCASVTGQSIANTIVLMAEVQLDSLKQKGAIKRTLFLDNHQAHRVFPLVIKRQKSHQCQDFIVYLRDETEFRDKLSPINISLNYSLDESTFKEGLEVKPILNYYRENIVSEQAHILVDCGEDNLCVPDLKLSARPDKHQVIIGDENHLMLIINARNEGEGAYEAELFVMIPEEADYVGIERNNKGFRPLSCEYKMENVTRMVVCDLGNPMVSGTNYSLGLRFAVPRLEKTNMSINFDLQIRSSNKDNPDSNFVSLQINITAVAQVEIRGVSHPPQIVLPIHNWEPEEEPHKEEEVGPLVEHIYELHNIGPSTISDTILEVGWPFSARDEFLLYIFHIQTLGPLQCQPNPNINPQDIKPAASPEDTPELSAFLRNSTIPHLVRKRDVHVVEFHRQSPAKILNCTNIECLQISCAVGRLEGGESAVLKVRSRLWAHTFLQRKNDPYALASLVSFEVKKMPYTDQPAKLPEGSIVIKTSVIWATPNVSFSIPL
Recombinant human integrin α8β1, sequence (P05556 21-728): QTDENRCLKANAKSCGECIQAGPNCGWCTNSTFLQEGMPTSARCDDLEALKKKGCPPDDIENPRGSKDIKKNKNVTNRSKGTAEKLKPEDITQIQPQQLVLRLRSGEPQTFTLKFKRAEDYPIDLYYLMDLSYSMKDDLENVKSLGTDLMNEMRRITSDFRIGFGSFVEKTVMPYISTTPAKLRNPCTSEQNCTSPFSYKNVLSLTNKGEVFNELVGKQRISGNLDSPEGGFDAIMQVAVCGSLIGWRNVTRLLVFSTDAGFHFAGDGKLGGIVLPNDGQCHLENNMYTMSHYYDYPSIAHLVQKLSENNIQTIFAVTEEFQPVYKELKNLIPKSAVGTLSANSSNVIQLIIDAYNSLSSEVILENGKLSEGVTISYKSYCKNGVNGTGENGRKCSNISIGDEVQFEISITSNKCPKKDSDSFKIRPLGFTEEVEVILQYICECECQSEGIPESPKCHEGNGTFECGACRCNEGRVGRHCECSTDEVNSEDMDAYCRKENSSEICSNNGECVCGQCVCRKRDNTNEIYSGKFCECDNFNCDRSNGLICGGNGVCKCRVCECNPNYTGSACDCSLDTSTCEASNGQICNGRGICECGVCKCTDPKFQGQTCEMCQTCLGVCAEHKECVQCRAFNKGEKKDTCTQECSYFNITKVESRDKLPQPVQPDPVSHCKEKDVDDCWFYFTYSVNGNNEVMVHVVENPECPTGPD

| Compound | AUC(0-inf) [1] [ng·h/mL] | IC50 [2] [nM] | half-life [3] [h] |
| --- | --- | --- | --- |
| O=C(O)C[C@H](NC(=O)CNC(=O)c1cc(O)cc(NC2=NCC(O)CN2)c1)c1cc(Br)cc(Br)c1 (stereo partly drawn) [Example 1, (3S)-3-(3,5-dibromophenyl)-3-(2-(3-hydroxy-5-((5-hydroxy-1,4,5,6-tetrahydropyrimidin-2-yl)amino)benzamido)acetamido)propanoic acid] | 25000 | 1.3 | 20.2 |
| O=C(O)C[C@H](NC(=O)CNC(=O)c1cc(O)cc(NC2=NCC(O)CN2)c1)c1cc(Br)cc(C(F)(F)F)c1 (stereo partly drawn) [Example 2, (3S)-3-(3-bromo-5-(trifluoromethyl)phenyl)-3-(2-(3-hydroxy-5-((5-hydroxy-1,4,5,6-tetrahydropyrimidin-2-yl)amino)benzamido)acetamido)propanoic acid] | 19300 | 1.5 | 9.1 |
| O=C(O)C[C@H](NC(=O)CNC(=O)c1cc(O)cc(NC2=NCC(O)CN2)c1)c1cc(Cl)cc(C(F)F)c1 (stereo partly drawn) [Example 3, (3S)-3-[3-chloro-5-(difluoromethyl)phenyl)-3-(2-(3-hydroxy-5-((5-hydroxy-1,4,5,6-tetrahydropyrimidin-2-yl)amino)benzamido)acetamido]propanoic acid] | 4870 | 0.9 | 6.1 |
| O=C(O)C[C@H](NC(=O)CNC(=O)c1cc(O)cc(NC2=NCC(O)CN2)c1)c1cc(Br)cc(C(F)F)c1 (stereo partly drawn) [Example 4, (3S)-3-[3-bromo-5-(difluoromethyl)phenyl)-3-(2-(3-hydroxy-5-((5-hydroxy-1,4,5,6-tetrahydropyrimidin-2-yl)amino)benzamido)acetamido]propanoic acid] | – | 0.6 | – |
| O=C(O)C[C@H](NC(=O)CNC(=O)c1cc(O)cc(NC2=NCC(O)CN2)c1)c1cc(Cl)cc(C(F)(F)F)c1 (stereo partly drawn) [Example 5, (3S)-3-[3-chloro-5-(trifluoromethyl)phenyl)-3-(2-(3-hydroxy-5-((5-hydroxy-1,4,5,6-tetrahydropyrimidin-2-yl)amino)benzamido)acetamido]propanoic acid] | 11400 | 0.9 | 6.6 |
| O=C(O)C[C@H](NC(=O)CNC(=O)c1cc(O)cc(NC2=NCC(O)CN2)c1)c1cc(Cl)cc(Br)c1 (stereo partly drawn) [Example 6, (3S)-3-[3-bromo-5-chloro-phenyl)-3-(2-(3-hydroxy-5-((5-hydroxy-1,4,5,6-tetrahydropyrimidin-2-yl)amino)benzamido)acetamido]propanoic acid] | 34400 | 0.5 | 16.7 |
| O=C(O)C[C@H](NC(=O)CNC(=O)c1cncc(NC2=NCC(O)CN2)c1)c1cc(Cl)cc(C(F)(F)F)c1 (stereo partly drawn) [Example 7] | 3890 | 0.6 | 4.6 |
| O=C(O)C[C@H](NC(=O)CNC(=O)c1cncc(NC2=NCC(O)CN2)c1)c1cc(Cl)cc(Br)c1 (stereo partly drawn) [Example 8, (3S)-3-(3-bromo-5-chloro-phenyl)-3-[[2-[[5-[(5-hydroxy-1,4,5,6-tetrahydropyrimidin-2-yl)amino]pyridine-3-carbonyl]amino]acetyl]amino]propanoic acid] | 4470 | 0.6 | 23.9 |
| O=C(O)C[C@H](NC(=O)CNC(=O)c1cncc(NC2=NCC(O)CN2)c1)c1cc(Br)cc(C(F)(F)F)c1 (stereo partly drawn) [Example 9, (3S)-3-[3-bromo-5-(trifluoromethyl)phenyl]-3-[[2-[[5-[(5-hydroxy-1,4,5,6-tetrahydropyrimidin-2-yl)amino]pyridine-3-carbonyl]amino]acetyl]amino]propanoic acid] | 4120 | 0.5 | 5.6 |
| O=C(O)C[C@H](NC(=O)CNC(=O)c1cc(O)cc(NC2=NCC(O)CN2)c1)c1cc(C(F)(F)F)cc(C(F)(F)F)c1 (stereo partly drawn) [Example 10, (3S)-3-[3,5-bis(trifluoromethyl)phenyl)-3-(2-(3-hydroxy-5-((5-hydroxy-1,4,5,6-tetrahydropyrimidin-2-yl)amino)benzamido)acetamido]propanoic acid] | 13000 | 1.1 | 3.9 |
| Cc1cc(Br)cc([C@H](CC(=O)O)NC(=O)CNC(=O)c2cc(O)cc(NC3=NCC(O)CN3)c2)c1 (stereo partly drawn) [Example 11, (3S)-3-[3-bromo-5-methyl-phenyl)-3-(2-(3-hydroxy-5-((5-hydroxy-1,4,5,6-tetrahydropyrimidin-2-yl)amino)benzamido)acetamido)propanoic acid] | 9140 | 0.7 | 24 |
| Cc1cc(Cl)cc([C@@H](CC(=O)O)NC(=O)CNC(=O)c2cccc(NC3=NCCN3)c2)c1O [Example C11, reference compound] | – | 17 | – |

Results, then the molecule that gave them:

| AUC(0-inf) [1] [ng·h/mL] | IC50 [2] [nM] | half-life [3] [h] | Compound |
| --- | --- | --- | --- |
| – | 8 ± 2 | – | O=C(O)C[C@H](NC(=O)CNC(=O)c1cc(O)cc(NC2=NCC(O)CN2)c1)c1cc(Cl)cc(Br)c1O (stereo partly drawn) [Example C1, reference compound] |
| – | 3 | – | O=C(O)C[C@H](NC(=O)CNC(=O)c1cc(O)cc(NC2=NCC(O)CN2)c1)c1ccccc1 (stereo partly drawn) [Example C2, reference compound] |
| – | 14 | – | O=C(O)CC(NC(=O)CNC(=O)c1cc(O)cc(NC2=NCC(O)CN2)c1)c1cc(Cl)cc(Cl)c1O (stereo not drawn) [Example C3, reference compound] |
| – | 63 | – | Cc1cc(C)cc(C(CC(=O)O)NC(=O)CNC(=O)c2cccc(NC(=N)N)c2)c1 (stereo not drawn) [Example C4, reference compound] |
| – | 383 | – | N=C(N)Nc1cccc(C(=O)NCC(=O)NC(CC(=O)O)c2ccccc2)c1 (stereo not drawn) [Example C5, reference compound] |
| – | 17 | – | Cc1ccc(O)c(C(CC(=O)O)NC(=O)CNC(=O)c2cc(O)cc(NC3=NCC(O)CN3)c2)c1 (stereo not drawn) [Example C6, reference compound] |
| – | 26 | – | O=C(O)CC(NC(=O)CNC(=O)c1cc(O)cc(NC2=NCC(O)CN2)c1)c1cc(Br)cc(Br)c1O (stereo not drawn) [Example C7, reference compound] |
| – | 594 | – | Cc1ccc(O)c(C(CC(=O)O)NC(=O)CNC(=O)c2cccc(NC(=N)N)c2)c1 (stereo not drawn) [Example C8, reference compound] |
| – | 40 | – | N=C(N)Nc1cccc(C(=O)NCC(=O)NC(CC(=O)O)c2cc(F)cc(C(F)(F)F)c2)c1 (stereo not drawn) [Example C9, reference compound] |
| – | 10 | – | Cc1cc(Cl)cc([C@@H](CC(=O)O)NC(=O)CNC(=O)c2cc(O)cc(NC3=NCC(O)CN3)c2)c1O (stereo partly drawn) [Example C10, reference compound] |
